Data: PubChem BioAssay AID296 (DTP/NCI, 2004)
Values joined by “and” are separate entries in the source; they are usually repeats but may differ in a detail not shown here. Equal entries are not always repeated. Results filed as inconclusive are left out.

System: MX-1 breast xenograft, nude mice, tumor weight T/C
Experiment: NCI In Vivo Anticancer Drug Screen. Data for tumor model Human Mammary Carcinoma MX-1 Xenograft (intrarenal inoculation) in NU/NU Swiss (nude) mice
Conditions: endpoint: mean tumor weight change, higher = larger tumour
Method: The antitumor activity of compounds was measured in mice bearing transplantable tumors. Survival or tumor size were measured and the results are expressed as the measurement made in the treated group (T) divided by the measurement made in the vehicle treated control group (C). The tumor model used in this assay is Human Mammary Carcinoma MX-1 Xenograft (intrarenal inoculation) in NU/NU Swiss (nude) mice

[1] = dose: 150.0 mg/kg/injection, schedule: Q04DX003 (sc), vehicle: saline with Tween-80
[2] = dose: 300.0 mg/kg/injection, schedule: Q04DX003 (sc), vehicle: saline with Tween-80
[3] = dose: 600.0 mg/kg/injection, schedule: Q04DX003 (sc), vehicle: saline with Tween-80
[4] = dose: 1200.0 mg/kg/injection, schedule: Q04DX003 (sc), vehicle: saline with Tween-80
[5] = dose: 2400.0 mg/kg/injection, schedule: Q04DX003 (sc), vehicle: saline with Tween-80

O=C1c2c(O)ccc(O)c2C(=O)c2c(NCCNCCO)ccc(NCCNCCO)c21
T/C (dose: 0.5 mg/kg/injection, schedule: Q01DX010 (sc), vehicle: acid diluted with saline): 40 % of control
T/C (dose: 2.0 mg/kg/injection, schedule: Q01DX010 (sc), vehicle: acid diluted with saline): 62 % of control
T/C (dose: 2.5 mg/kg/injection, schedule: Q04DX003 (sc), vehicle: other): 59 % of control
T/C (dose: 2.5 mg/kg/injection, schedule: Q04DX003 (sc), vehicle: water): 28 % of control
T/C (dose: 5.0 mg/kg/injection, schedule: Q04DX003 (sc), vehicle: other): 34 % of control
T/C (dose: 5.0 mg/kg/injection, schedule: Q04DX003 (sc), vehicle: water): 9 % of control and 29 % of control
T/C (dose: 10.0 mg/kg/injection, schedule: Q04DX003 (sc), vehicle: other): 8 % of control
T/C (dose: 10.0 mg/kg/injection, schedule: Q04DX003 (sc), vehicle: water): 6 % of control

OCC1OC(n2cnc3c(Cl)ncnc32)C(O)C1O (stereo not given)
T/C (dose: 300.0 mg/kg/injection, schedule: Q04DX003 (sc), vehicle: saline): 74 % of control
T/C (dose: 600.0 mg/kg/injection, schedule: Q04DX003 (sc), vehicle: saline): 84 % of control
T/C (dose: 1200.0 mg/kg/injection, schedule: Q04DX003 (sc), vehicle: saline): 80 % of control

COc1cc(Cc2nccc3cc(OC)c(OC)cc23)c(C(C)=O)c(OC)c1
T/C (dose: 40.0 mg/kg/injection, schedule: Q01DX010 (sc), vehicle: saline): 103 % of control
T/C (dose: 80.0 mg/kg/injection, schedule: Q01DX010 (sc), vehicle: saline): 103 % of control
T/C (dose: 160.0 mg/kg/injection, schedule: Q01DX010 (sc), vehicle: saline): 93 % of control

C=C1N(C)c2ccccc2C1(C)C
T/C (dose: 25.0 mg/kg/injection, schedule: Q04DX003 (sc), vehicle: saline with Tween-80): 100 % of control
T/C (dose: 50.0 mg/kg/injection, schedule: Q04DX003 (sc), vehicle: saline with Tween-80): 75 % of control

CC(=Nc1ccccc1)C1=C(O)C(Cc2ccccc2)NC1=O (stereo not given)
T/C [1]: 92 % of control
T/C [2]: 63 % of control
T/C [3]: 48 % of control
T/C [4]: 44 % of control

CC(/C=C/c1ccccc1)=Nc1ccccc1
T/C [1]: 71 % of control
T/C [2]: 83 % of control
T/C [3]: 69 % of control
T/C [4]: 93 % of control

CCCCCC(O)C1C(=O)OC(C)C(O)/C=C/C=C/C=C/C=C\C=C(\C)C(O)CC(O)CC(O)CC(O)CC(O)CC(O)CC1O (stereo not given)
T/C (dose: 300.0 mg/kg/injection, schedule: Q04DX003 (sc), vehicle: distilled water + alcohol): 84 % of control
T/C (dose: 600.0 mg/kg/injection, schedule: Q04DX003 (sc), vehicle: distilled water + alcohol): 107 % of control
T/C (dose: 1200.0 mg/kg/injection, schedule: Q04DX003 (sc), vehicle: distilled water + alcohol): 69 % of control

O=C1NC(=O)/C(=C/C=C/c2ccccc2)S1
T/C [2]: 111 % of control
T/C [3]: 98 % of control
T/C [4]: 84 % of control
T/C [5]: 66 % of control

C[Si](C)(C)O/C=C1\CCCCC1=O
T/C (dose: 200.0 mg/kg/injection, schedule: Q04DX003 (sc), vehicle: saline with Tween-80): 94 % of control
T/C (dose: 400.0 mg/kg/injection, schedule: Q04DX003 (sc), vehicle: saline with Tween-80): 89 % of control

O=C(O)CC(NC(=O)CP(=O)(O)O)C(=O)O.[NH-]C1CCCCC1[NH-].[Pt+2] (stereo not given)
T/C (dose: 12.5 mg/kg/injection, schedule: Q04DX003 (sc), vehicle: dextrose): 175 % of control
T/C (dose: 25.0 mg/kg/injection, schedule: Q04DX003 (sc), vehicle: dextrose): 43 % of control and 62 % of control
T/C (dose: 100.0 mg/kg/injection, schedule: Q04DX003 (sc), vehicle: dextrose): 12 % of control

CC(=O)C(O)N1C(=O)C=CC1=O (stereo not given)
T/C (dose: 2.5 mg/kg/injection, schedule: Q01DX010 (sc), vehicle: saline): 157 % of control
T/C (dose: 5.0 mg/kg/injection, schedule: Q01DX010 (sc), vehicle: saline): 117 % of control
T/C (dose: 10.0 mg/kg/injection, schedule: Q01DX010 (sc), vehicle: saline): 159 % of control

CCOC(=O)CNC(=O)CCCCSc1ncnc2nc[nH]c12
T/C [4]: 109 % of control
T/C [5]: 86 % of control

c1ccc2c(c1)nnn1c3cnccc3nc21
T/C (dose: 12.5 mg/kg/injection, schedule: Q01DX010 (sc), vehicle: saline with Tween-80): 36 % of control
T/C (dose: 25.0 mg/kg/injection, schedule: Q01DX010 (sc), vehicle: saline with Tween-80): 86 % of control
T/C (dose: 50.0 mg/kg/injection, schedule: Q01DX010 (sc), vehicle: saline with Tween-80): 63 % of control

Nc1n[n+](-c2ccccc2)no1
T/C (dose: 18.75 mg/kg/injection, schedule: Q04DX003 (sc), vehicle: water): 70 % of control
T/C (dose: 37.5 mg/kg/injection, schedule: Q04DX003 (sc), vehicle: water): 94 % of control
T/C (dose: 75.0 mg/kg/injection, schedule: Q04DX003 (sc), vehicle: water): 59 % of control

CC(=O)NC(Cc1ccc(F)cc1)C(=O)O (stereo not given)
T/C [2]: 100 % of control
T/C [3]: 101 % of control
T/C [4]: 120 % of control
T/C [5]: 111 % of control

Nc1nc2n[nH]nc2c(=O)[nH]1
T/C (dose: 75.0 mg/kg/injection, schedule: Q04DX003 (ip), vehicle: suspension in saline): 22 % of control and 46 % of control
T/C (dose: 75.0 mg/kg/injection, schedule: Q04DX003 (sc), vehicle: suspension in saline): 35 % of control
T/C (dose: 150.0 mg/kg/injection, schedule: Q04DX003 (ip), vehicle: suspension in saline): 6 % of control
T/C (dose: 150.0 mg/kg/injection, schedule: Q04DX003 (sc), vehicle: suspension in saline): 18 % of control
T/C (dose: 300.0 mg/kg/injection, schedule: Q04DX003 (ip), vehicle: suspension in saline): 1 % of control
T/C (dose: 600.0 mg/kg/injection, schedule: Q04DX003 (sc), vehicle: suspension in saline): -77 % of control

COC12[C@@H]3N[C@@H]3CN1C1=C(C(=O)C(NCCSSCCNC3=C(C)C(=O)C4=C(C3=O)C(COC(N)=O)[C@]3(OC)C5N[C@@H]5CN43)=C(C)C1=O)[C@@H]2COC(N)=O (stereo not given in full)
T/C (dose: 3.12 mg/kg/injection, schedule: Q04DX003 (ip), vehicle: DMSO): 17 % of control
T/C (dose: 12.5 mg/kg/injection, schedule: Q04DX003 (ip), vehicle: DMSO): 14 % of control
T/C (dose: 25.0 mg/kg/injection, schedule: Q04DX003 (ip), vehicle: DMSO): -1 % of control

CNNCc1ccc(C(=O)NC(C)C)cc1
T/C (dose: 100.0 mg/kg/injection, schedule: Q01DX010 (sc), vehicle: saline): 57 % of control and 69 % of control
T/C (dose: 400.0 mg/kg/injection, schedule: Q01DX010 (sc), vehicle: saline): 7 % of control

O=C(Nc1cccc2c(OC(=O)C(Cl)Cl)c(N=Nc3ccc(S(=O)(=O)Nc4nccs4)cc3)cc(N=Nc3ccc(S(=O)(=O)Nc4nccs4)cc3)c12)C(Cl)Cl (tested in a mixture with another compound)
T/C [2]: 111 % of control
T/C [3]: 103 % of control
T/C [4]: 109 % of control
T/C [5]: 109 % of control

CC(=O)O[C@H]1C(=O)[C@@]2(C)[C@H]([C@H](OC(=O)c3ccccc3)[C@]3(O)C[C@H](OC(=O)[C@H](O)[C@@H](NC(=O)c4ccccc4)c4ccccc4)C(C)=C1C3(C)C)[C@]1(OC(C)=O)CO[C@@H]1C[C@@H]2O
T/C (dose: 2.5 mg/kg/injection, schedule: Q01DX010 (sc), vehicle: Klucel (hydroxypropylcellulose) (HPC)): 83 % of control
T/C (dose: 5.0 mg/kg/injection, schedule: Q01DX010 (sc), vehicle: Klucel (hydroxypropylcellulose) (HPC)): 77 % of control
T/C (dose: 10.0 mg/kg/injection, schedule: Q01DX010 (sc), vehicle: Klucel (hydroxypropylcellulose) (HPC)): 46 % of control
T/C (dose: 20.0 mg/kg/injection, schedule: Q01DX010 (sc), vehicle: Klucel (hydroxypropylcellulose) (HPC)): 73 % of control
T/C (dose: 40.0 mg/kg/injection, schedule: Q01DX010 (sc), vehicle: Klucel (hydroxypropylcellulose) (HPC)): 48 % of control
T/C (dose: 80.0 mg/kg/injection, schedule: Q01DX010 (sc), vehicle: Klucel (hydroxypropylcellulose) (HPC)): 36 % of control
T/C (dose: 400.0 mg/kg/injection, schedule: Q01DX010 (sc), vehicle: Klucel (hydroxypropylcellulose) (HPC)): 6 % of control

CC[As](=O)(O)CC
T/C (dose: 100.0 mg/kg/injection, schedule: Q04DX003 (sc), vehicle: saline): 96 % of control
T/C (dose: 200.0 mg/kg/injection, schedule: Q04DX003 (sc), vehicle: saline): 88 % of control

Cc1ccc(C2NC(=S)N3C(c4ccc(C)cc4)NC(=S)N23)cc1 (stereo not given)
T/C (dose: 300.0 mg/kg/injection, schedule: Q04DX003 (sc), vehicle: Klucel (hydroxypropylcellulose) (HPC)): 91 % of control
T/C (dose: 600.0 mg/kg/injection, schedule: Q04DX003 (sc), vehicle: Klucel (hydroxypropylcellulose) (HPC)): 112 % of control
T/C (dose: 2400.0 mg/kg/injection, schedule: Q04DX003 (sc), vehicle: Klucel (hydroxypropylcellulose) (HPC)): 89 % of control

O=NN(CCCl)C(=O)NCCO
T/C (dose: 3.12 mg/kg/injection, schedule: Q04DX003 (sc), vehicle: water): 72 % of control and 208 % of control
T/C (dose: 12.5 mg/kg/injection, schedule: Q04DX003 (sc), vehicle: water): 10 % of control
